3 compounds from EP3415164A1, “COMPOSITION COMPRISING A SPECIFIC P38A INHIBITOR AND AN AGENT THAT INDUCES CHROMOSOME INSTABILITY AND MEDICAL USES THEREOF” (Fundació Institut de Recerca Biomèdica (IRB Barcelona), priority 2017, dated 2018) can be followed below.

In data set [1] the test system is breast tumour patient-derived xenografts (PDXs). The data set is described as follows: Breast tumour patient-derived xenografts (PDXs) treated with taxanes and PH797804. In kind it is in vivo.
Data set [2] concerns PyMT-induced mammary tumours. The data set can be described thus: Growth, DNA damage and mitotic figures of PyMT-induced mammary tumours in treated mice. Format: in vivo. The note with it: for effect on tumour growth: taxane administered alone, 20 mg/kg once a week for three weeks. The method, then:
Mouse experiments. PyMT p38αlox/lox UbCre female mice were generated by crossing p38αlox/lox mice (Ventura et al., 2007) with MMTV-PyMT, provided by William Muller (McGill University, Canada) and UbiquitinC-Cre-ERT2 mice (Ruzankina et al., 2007), being all mostly in FVB background. Mouse genotyping was performed by PCR using genomic tail DNA. Primers and conditions are available upon request. Mice were housed according to national and European Union regulations, and protocols were approved by the animal care and use committee of the Barcelona Science Park (PCB-CEEA). […] For p38α deletion, 4OHT (Sigma, H6278) was dissolved in 10% ethanol/90% corn oil (Sigma, C8267) and mice were injected intraperitoneally with 1 mg each day for five consecutive days. For chemotherapeutic treatments, mice were injected once a week with 20 mg/kg of docetaxel (Accord, 691719.0) or 20 mg/kg paclitaxel (Accord, 676253.0), for three consecutive weeks. […] Histology and immunohistochemistry. Tumours dissected from mice were fixed overnight in 10%-buffered formalin (Sigma, HT501128) and embedded in paraffin. Sections (5 µm-thick) were stained with hematoxylin and eosin (H&E). Specific antibodies were used for the following stainings: Ki67 (Novacastra, NCL), phospho-H3 (Millipore, 06-570), γ-H2AX (Millipore, 05-636). […] Apoptosis was detected by TUNEL using the "In situ Cell Death Detection Kit, Fluorescein" (Roche, 11684795910), following the manufacturer's instructions.

The mark [3] stands for this setting: combination therapy versus single treatments, around day 15, responding PDXs (TN1, TN2, Lum1, Lum2).
The mark [4] stands for this setting: PH797804 in combination with paclitaxel or docetaxel.

On to `CNC(=O)c1ccc(C)c(-n2c(C)cc(OCc3ccc(F)cc3F)c(Br)c2=O)c1` [PH797804], for which the “aneuploidy (FISH, chromosome 17 centromeric probe)” value in data set [1] (PH797804 with paclitaxel versus paclitaxel) is listed as “usually enhanced the aneuploidy induced by paclitaxel”. The “detrimental outcome induced by p38α inhibition” value in data set [1] (all nine PDXs) is listed as “never observed increased tumour growth or any other detrimental outcome”. For the same compound, the anti-tumour response entry in data set [1] (co-administration with paclitaxel or docetaxel versus taxane alone, most cases (seven of nine PDXs)) is reported as “enhanced, accelerated or prolonged the anti-tumour response observed with the taxane alone”. Besides, the anti-tumour response result in data set [1] (co-administration with taxane, PDX models TN5 and Lum4) is on record as “no additional benefit was observed”. In addition, in data set [1] (setting [3]), the missegregation events entry was “increased percentage of missegregation events” and the γ-H2AX staining entry is “increased γ-H2AX staining”. In addition, in data set [1] (p38α inhibition (PH797804) alone, 15 mg/kg daily oral, most PDX models), the “effect on tumour growth” value is “mild effect on tumour growth”. Also, the tumour size entry in data set [2] (PH797804 15 mg/kg daily by oral gavage in combination with paclitaxel or docetaxel) is listed as “substantial reduction of tumour size”. In data set [2] (setting [4]), the “DNA damage (γ-H2AX staining)” value is reported as “increased levels of DNA damage” and the “missegregation events (phospho-H3 staining)” value is “higher number of missegregation events”.
In the case of `CC(=O)O[C@@]12CO[C@@H]1C[C@H](O)[C@@]1(C)C(=O)[C@H](O)C3=C(C)[C@@H](OC(=O)[C@H](O)[C@@H](NC(=O)OC(C)(C)C)c4ccccc4)C[C@@](O)([C@@H](OC(=O)c4ccccc4)[C@H]21)C3(C)C` [docetaxel], in data set [2], the “effect on tumour growth” value is on record as “only exerted a cytostatic effect on tumour growth”.
The same measure, in the same setting: with `CC(=O)O[C@H]1C(=O)[C@@]2(C)[C@H]([C@H](OC(=O)c3ccccc3)[C@]3(O)C[C@H](OC(=O)[C@H](O)[C@@H](NC(=O)c4ccccc4)c4ccccc4)C(C)=C1C3(C)C)[C@]1(OC(C)=O)CO[C@@H]1C[C@@H]2O` [paclitaxel] the entry was “only exerted a cytostatic effect on tumour growth”.
